Test: Plasma pharmacokinetics after single oral dose of Δ8-THCV in MCT oil (LC-MS/MS, non-compartmental analysis)
Assay type: in vivo, human
Design: Clast (last quantifiable concentration): unit not given here
Conditions: for Clast (last quantifiable concentration) / tlast (time to last quantifiable concentration) / concentration at 0.5 h / concentration at 1 h / concentration at 2 h / concentration at 4 h / concentration at 6 h / concentration at 8 h: plasma; for plasma concentration: Predose; for concentration at 0.5 h / concentration at 1 h / concentration at 2 h / concentration at 4 h / concentration at 6 h / concentration at 8 h: human, oral
Outline: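 Healthy participants received single oral Δ8-THCV in MCT oil (50 mg/mL; 12.5-200 mg, or placebo) after a high-fat, high-calorie breakfast, with ≥1-week washout. Plasma (K2EDTA) sampled predose and 0.5-8 h post-dose, assayed by validated LC-MS/MS including metabolites; PK by non-compartmental analysis, sub-LLOQ values set to 0.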

[1] = 12.5 mg single oral Δ8-THCV in MCT oil, Mean (±SD)
[2] = 12.5 mg single oral Δ8-THCV in MCT oil, Median (Range)
[3] = 25 mg single oral Δ8-THCV in MCT oil, Mean (±SD)
[4] = 25 mg single oral Δ8-THCV in MCT oil, Median (Range)
[5] = 50 mg single oral Δ8-THCV in MCT oil, Mean (±SD)
[6] = 50 mg single oral Δ8-THCV in MCT oil, Median (Range)
[7] = 100 mg single oral Δ8-THCV in MCT oil, Mean (±SD)
[8] = 100 mg single oral Δ8-THCV in MCT oil, Median (Range)
[9] = 200 mg single oral Δ8-THCV in MCT oil, Mean (±SD)
[10] = 200 mg single oral Δ8-THCV in MCT oil, Median (Range)
[11] = 12.5 mg, 12.5 mg Δ8-THCV dose, Mean (SD, %CV)
[12] = 12.5 mg, 12.5 mg Δ8-THCV dose, Median (IQ Range)
[13] = 25 mg, 25 mg Δ8-THCV dose, Mean (SD, %CV)
[14] = 25 mg, 25 mg Δ8-THCV dose, Median (IQ Range)
[15] = 50 mg, 50 mg Δ8-THCV dose, Mean (SD, %CV)
[16] = 50 mg, 50 mg Δ8-THCV dose, Median (IQ Range)

Which results are given for `CCCc1cc(O)c2c(c1)OC(C)(C)[C@@H]1CC=C(C)C[C@@H]21` [Δ8-THCV, Δ8-tetrahydrocannabivarin]?
Clast (last quantifiable concentration) [1]: 0.9 (±0.3); tlast (time to last quantifiable concentration) [1]: 5.3 (±2.3); Clast (last quantifiable concentration) [2]: 0.7 (0.6–1.5); tlast (time to last quantifiable concentration) [2]: 5 (2–8); Clast (last quantifiable concentration) [3]: 1.1 (±0.4); tlast (time to last quantifiable concentration) [3]: 6.3 (±1.9); Clast (last quantifiable concentration) [4]: 1 (0.5–1.8); tlast (time to last quantifiable concentration) [4]: 7 (4–8); Clast (last quantifiable concentration) [5]: 2.3 (±1.5); tlast (time to last quantifiable concentration) [5]: 7.9 (±0.5); Clast (last quantifiable concentration) [6]: 2.2 (0.6–5.5); tlast (time to last quantifiable concentration) [6]: 8 (6–8); Clast (last quantifiable concentration) [7]: 4.1 (±3.1); tlast (time to last quantifiable concentration) [7]: 8 (±0); Clast (last quantifiable concentration) [8]: 3.1 (0.8–9.9); tlast (time to last quantifiable concentration) [8]: 8 (8–8); Clast (last quantifiable concentration) [9]: 21.2 (±23.2); tlast (time to last quantifiable concentration) [9]: 8 (±0); Clast (last quantifiable concentration) [10]: 13.4 (1.5–87.6); tlast (time to last quantifiable concentration) [10]: 8 (8–8); plasma concentration (12.5 mg Δ8-THCV dose, Mean (SD, %CV)): 0 (±0, --) ng/mL; plasma concentration (12.5 mg Δ8-THCV dose, Median (IQ Range)): 0 (0–0) ng/mL; plasma concentration (25 mg Δ8-THCV dose, Mean (SD, %CV)): 0 (±0, --) ng/mL; plasma concentration (25 mg Δ8-THCV dose, Median (IQ Range)): 0 (0–0) ng/mL; plasma concentration (50 mg Δ8-THCV dose, Mean (SD, %CV)): 0 (±0, --) ng/mL; plasma concentration (50 mg Δ8-THCV dose, Median (IQ Range)): 0 (0–0) ng/mL; plasma concentration (100 mg Δ8-THCV dose, Mean (SD, %CV)): 0 (±0, --) ng/mL; plasma concentration (100 mg Δ8-THCV dose, Median (IQ Range)): 0 (0–0) ng/mL; plasma concentration (200 mg Δ8-THCV dose, Mean (SD, %CV)): 0 (±0, --) ng/mL; plasma concentration (200 mg Δ8-THCV dose, Median (IQ Range)): 0 (0–0) ng/mL; median AUClast ratio Δ8-THCV-COOH/Δ8-THCV/11-OH-Δ8-THCV (after the 200 mg dose, Δ8-THCV = 1): 1; concentration at 0.5 h [11]: 0 ng/mL; concentration at 0.5 h [12]: 0 ng/mL; concentration at 1 h [11]: 0.1 ng/mL; concentration at 1 h [12]: 0 ng/mL; concentration at 2 h [11]: 0.4 ng/mL; concentration at 2 h [12]: 0 ng/mL; concentration at 4 h [11]: 0.7 ng/mL; concentration at 4 h [12]: 0.6 ng/mL; concentration at 6 h [11]: 0.5 ng/mL; concentration at 6 h [12]: 0 ng/mL; concentration at 8 h [11]: 0.2 ng/mL; concentration at 8 h [12]: 0 ng/mL; concentration at 0.5 h [13]: 0 ng/mL; concentration at 0.5 h [14]: 0 ng/mL; concentration at 1 h [13]: 0.3 ng/mL; concentration at 1 h [14]: 0 ng/mL; concentration at 2 h [13]: 1.4 ng/mL; concentration at 2 h [14]: 0.3 ng/mL; concentration at 4 h [13]: 1.8 ng/mL; concentration at 4 h [14]: 1.5 ng/mL; concentration at 6 h [13]: 0.9 ng/mL; concentration at 6 h [14]: 0.7 ng/mL; concentration at 8 h [13]: 0.4 ng/mL; concentration at 8 h [14]: 0.3 ng/mL; concentration at 0.5 h [15]: 0.1 ng/mL; concentration at 0.5 h [16]: 0 ng/mL; concentration at 1 h [15]: 0.5 ng/mL; concentration at 1 h [16]: 0 ng/mL; concentration at 2 h [15]: 2.6 ng/mL; concentration at 2 h [16]: 0 ng/mL; concentration at 4 h [15]: 4.3 ng/mL; concentration at 4 h [16]: 2.4 ng/mL; concentration at 6 h [15]: 6.1 ng/mL; concentration at 6 h [16]: 2.8 ng/mL; concentration at 8 h [15]: 2.2 ng/mL; concentration at 8 h [16]: 2.2 ng/mL; concentration at 0.5 h (100 mg, 100 mg Δ8-THCV dose, Mean (SD, %CV)): 0.2 ng/mL

— publication PMC11676667, “Pharmacokinetics of Oral Cannabinoid Δ8-Tetrahydrocannabivarin and Its Main Metabolites in Healthy Participants” (Pharmaceuticals, 2024)
